A short description of experiment [1]: Inhibition of HIV1 His6-tagged integrase-FLAG-tagged LEDGF/p75 (unknown origin) interaction after 1 hr by AlphaScreen assay. On the technique in general: In Alpha technology, singlet oxygen from a donor bead excites a nearby acceptor bead.
The subject of experiment [2] is Human immunodeficiency virus 1. Kind of experiment: Antiviral activity against HIV1 infected in human MT2 cells assessed as protection from viral replication. The conditions noted are these: Human immunodeficiency virus 1, MT2. The class given is functional, organism-based.

Broadly, the IC50 is the concentration that gives 50% inhibition. The low end stands for greater potency in that assay, the high end for weaker potency in that assay. In experiment [1], `O=C(O)/C(O)=C/C(=O)c1c[nH]c2cccc(O)c12` had an IC50 of 35 µM.

As usually defined, the EC50 is the concentration giving half of the maximal effect. On to `COc1ccc(Cc2nnc(Nc3ccc(C)cc3)o2)cc1OC`, for which the EC50 in experiment [2] is greater than 100 µM.

The molecule `O=C(O)/C(O)=C/C(=O)c1cn(Cc2ccc(F)cc2)c2ccccc12` came in with an IC50 in experiment [1] of 100 µM.
